The structures appear in SMILES notation. Several values for one entry are separate records, joined by “and”; a condition that tells them apart may be missing. Equal entries are not always repeated.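 Values below derive from 48-hour exposures of cells grown in 96-well plates, with endpoints linearly interpolated between the two concentrations bracketing the appropriate inhibition level. GI50 is the concentration that inhibits growth by half. At the TGI there is no net growth.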 A value given as a limit tells only on which side of the number the result lay.

Common to all, as to assay: growth of human tumour cells (NCI), 48 h
Assay [1] relates to SNB-75 CNS.
In assay [2] the test system is OVCAR-4 ovarian.
In assay [3] the test system is SK-MEL-5 melanoma.
For assay [4], the system named is SNB-19 CNS.
The test system of assay [5] is UACC-62 melanoma.
In assay [6] the test system is HL-60(TB) leukemia.
In assay [7] the test system is NCI-H23 lung.
The subject of assay [8] is OVCAR-5 ovarian.
Assay [9] concerns NCI-H522 lung.

On to `COc1ccc(-n2cc(-c3ccc(OC)c(OC)c3)[nH]c2=O)cc1`, for which the GI50 in assay [1] is 12.1 µM; in assay [2], over 100 µM; in [3], over 100 µM; in assay [4], over 100 µM; in assay [5] it was over 100 µM; in [6], over 100 µM. Further, the GI50 in assay [7], in assay [8] and in [9] was over 100 µM throughout. Moreover, the TGI is 99.3 µM in [1]; over 100 µM in assay [2]; over 100 µM in assay [3]; over 100 µM in [4]; over 100 µM in assay [5]; over 100 µM in assay [6]. The TGI in assay [7], in [8] and in assay [9] was over 100 µM each time.

Consider `O=C(c1ccccc1)C1N=NN(Cc2ccccc2[N+](=O)[O-])C1C(=O)c1ccccc1` (stereo not given), for which the TGI in assay [1], in [2], in [3], in assay [4], in assay [5] and in assay [6] was over 100 µM each time. The TGI in assay [7], in assay [8] and in assay [9] was over 100 µM throughout.

Regarding `Cc1ccccc1NC(=O)CSc1nnc(-c2ccc(N=Cc3ccc(Cl)cc3)cc2)o1`, the TGI in [1], in [2], in assay [3], in assay [4], in assay [5] and in [6] was over 100 µM each time. Also, the TGI in assay [7] was over 100 µM.

Take `Cc1nnc2n1N=C(c1ccccc1)C(c1ccccc1)S2` (stereo not given): the TGI in assay [1] is 79.7 µM; in assay [2], over 100 µM; in assay [3], over 100 µM; in assay [4], over 100 µM; in [5], over 100 µM; in assay [6] it was 64.5 µM. In addition, the TGI in [7] was 64 µM; in assay [8], over 100 µM; in assay [9], 57.7 µM.

With `O=C1CC23CCCCCCCCCCC2(C1)CC(=O)C3` (stereo not given), the TGI is 32.4 µM in assay [3]; 76.3 µM in [4]; 39.2 µM in assay [6]; over 100 µM in assay [7]; 72.1 µM in [8]; 45 µM in assay [9].

As to `Cc1cc2c(c(C(=O)O)c1C)-c1cccc(Cl)c1C2=O`, the TGI in assay [1], in assay [2], in assay [3], in assay [4], in assay [5] and in assay [7] was over 100 µM each time. For the same compound, the TGI in [8] and in [9] was over 100 µM in each case.

In the case of `CN(C)C(=S)/N=c1\ss/c(=N\C(=S)N(C)C)n1-c1cccc(Cl)c1`, the TGI in assay [1], in assay [2], in assay [3], in assay [4], in assay [5] and in assay [6] was over 100 µM each time. For the same compound, the TGI in [7], in assay [8] and in assay [9] was over 100 µM in each case.

Consider `O=C(CC1=Nc2nnc(CCCCCCCc3nnc4n3C(=O)C(CC(=O)c3ccc5ccccc5c3)=N4)n2C1=O)c1ccc2ccccc2c1`, for which the TGI in [1], in [2], in [4], in [5], in [6] and in [7] was over 100 µM each time. Besides, the TGI in assay [8] and in assay [9] was over 100 µM throughout.

For `COC(=O)C1CC(c2ccc(OC)c(OC)c2)OC1=O` (mixture of isomers), the TGI in assay [1], in assay [2], in assay [3], in [4], in assay [5] and in assay [6] was over 100 µM throughout. Further, the TGI in [7], in [8] and in [9] was over 100 µM throughout.

In the case of `CCOc1ccc(NC(=O)/C(CC(=O)c2c[n+](=O)c3ccccc3n2[O-])=N\OCCCc2ccccc2)cc1`, the TGI in [1], in assay [2], in assay [4], in assay [5], in assay [6] and in [7] was over 100 µM in each case. Besides, the TGI in assay [8] and in assay [9] was over 100 µM throughout.

Take `CC(C)(C)C#COC(=O)c1ccccc1`: the TGI in [2], in [3], in assay [4], in assay [5], in assay [6] and in [7] was over 100 µM in each case. The TGI in assay [8] and in assay [9] was over 100 µM each time.

With `CC(=O)Nc1ccc(C2CC(c3ccc([N+](=O)[O-])cc3)=Nc3ccccc3S2)cc1` (stereo not given), the TGI in [1] is over 100 µM; in assay [2], 42.2 µM; in [4] it was 62.4 µM; in assay [5] it was 32.1 µM; in assay [6], 49.7 µM; in assay [8], 41.5 µM.

For `c1cnc2c(c1)-n1cccc1C1(CCCCC1)NN2`, the TGI in assay [1], in assay [2], in assay [3], in [4], in assay [6] and in [8] was over 100 µM each time. Moreover, the TGI in [9] was over 100 µM.

`CN1CCCC2[C@@H]3CCC4c5nonc5CC[C@]4(C)C3CC[C@@]21C` (stereo not given in full): the TGI in [1], in [2], in assay [3], in [4], in assay [5] and in assay [7] was over 100 µM each time. The TGI in assay [8] and in assay [9] was over 100 µM throughout.

Consider `CC(=O)[CH-]C(C)=O.CC(=O)[CH-]C(C)=O.[O-]c1ccccc1.[O-]c1ccccc1.[Ti+4]`, for which the GI50 in assay [1], in assay [2], in [3], in assay [4], in assay [5] and in assay [6] was over 100 µM throughout. In addition, the GI50 in [7], in [8] and in [9] was over 100 µM in each case. Also, the TGI in assay [1], in [2], in assay [3], in assay [4], in assay [5] and in [6] was over 100 µM each time. Besides, the TGI in assay [7], in assay [8] and in [9] was over 100 µM throughout.

With `O=c1c(Cc2ccccc2)c(O)cc2n1CCC2`, the TGI in [1], in assay [2], in [3], in assay [4], in [5] and in assay [7] was over 100 µM in each case. For the same compound, the TGI in assay [8] and in assay [9] was over 100 µM each time.

For `O=c1[nH]ccc(CNC23CC4CC(CC(C4)C2)C3)c1O`, the TGI in [1], in assay [2], in assay [3], in assay [4], in assay [5] and in assay [6] was over 100 µM throughout. Moreover, the TGI in [7] was over 100 µM; in [8], over 100 µM; in assay [9], 52.7 µM.

In the case of `O=C1NC(O)n2c(=O)[nH]c(=O)n21` (stereo not given), the TGI in assay [1], in assay [2], in [3], in assay [4], in assay [5] and in assay [6] was over 100 µM each time. Besides, the TGI in [7], in assay [8] and in [9] was over 100 µM in each case.

`c1ccc2c(c1)[nH]c1c2nc2ccccn21`: the GI50 is 45.6 µM and > 100 µM in assay [1]; 42.8 µM and > 100 µM in [6]. The TGI in assay [1], in assay [2], in [3], in assay [4], in assay [5] and in assay [6] was over 100 µM each time. Besides, the TGI in assay [7], in [8] and in assay [9] was over 100 µM in each case.

For `COc1cc(C)c2c(c1)CN1CN2Cc2cc(OC)cc(C)c21`, the TGI is 46.3 µM in [1]; over 100 µM in [2]; 14.4 µM in assay [3]; 79 µM in [5]; 64.2 µM in [6]; over 100 µM in assay [7]. In addition, the TGI in [8] and in assay [9] was over 100 µM each time.

Turning to `Cc1ccc(C2=CC(=O)c3ccccc3C2=O)n1-c1ccccc1`, the TGI in assay [1] is over 100 µM; in assay [2], 96.6 µM; in assay [3], over 100 µM; in assay [4], over 100 µM; in [5], over 100 µM; in [6] it was 94.2 µM. The TGI in assay [7] and in [9] was over 100 µM in each case.

As for `COC(=O)C1C=CCC2CCCCC21N1CCCC1` (stereo not given), the TGI is over 100 µM in [1]; over 100 µM in [2]; over 100 µM in [3]; over 100 µM in assay [4]; over 100 µM in [5]; 49.1 µM in assay [6]. Moreover, the TGI in assay [8] and in assay [9] was over 100 µM each time.

Turning to `OCC(O)C(O)C(O)C(/C=N\Nc1ncnc2c(Br)cc(Br)cc12)=N/Nc1ncnc2c(Br)cc(Br)cc12` (stereo not given), the TGI in [3] was 16.4 µM and 18.7 µM; in assay [6], over 100 µM; in assay [8], 46.1 µM and > 100 µM; in assay [9] it was 24.9 µM and > 100 µM. Besides, the GI50 in assay [6] was 6.47 µM and 2.8 µM; in assay [8] it was 5.83 µM and 41.2 µM; in assay [9] it was 10.1 µM and 3.6 µM.

In the case of `Cc1cc(Cl)ccc1NC(=O)CCCC(=O)C1C/C(=N/O)CC/C1=N\O` (stereo not given), the TGI in assay [1], in [2], in assay [3], in [4], in assay [5] and in [6] was over 100 µM in each case. The TGI in [7], in [8] and in assay [9] was over 100 µM in each case.

Regarding `O=c1c2cccnc2ncn1CCCN1CCCCC1`, the TGI in assay [1], in [2], in [3], in assay [4], in assay [5] and in assay [7] was over 100 µM in each case. Moreover, the TGI in assay [8] and in assay [9] was over 100 µM throughout.

`COc1ccc(-c2ccc(CC(=O)O)cc2)cc1OC`: the TGI in [1], in assay [2], in assay [3], in assay [4], in [5] and in assay [6] was over 100 µM in each case. In addition, the TGI in [7], in [8] and in assay [9] was over 100 µM each time.

As for `CC1CCC2C(C)C(=O)OC2C2(C)C(=O)C=CC12` (stereo not given), the TGI in [1], in assay [2], in assay [3], in [4], in assay [5] and in assay [6] was over 10 µM throughout. For the same compound, the TGI in assay [7], in assay [8] and in [9] was over 10 µM in each case.

Consider `Cn1c(=O)oc2cc(C3CCC(=O)N3Cc3csc(-c4ccccc4)n3)ccc21` (stereo not given), for which the TGI in [1], in assay [2], in [3], in assay [4], in assay [5] and in assay [6] was over 100 µM in each case. The TGI in assay [7], in assay [8] and in [9] was over 100 µM in each case.

In the case of `N/N=C(/Cc1ccccc1)NNO`, the TGI in [1], in [2], in [3], in [4], in [5] and in [6] was over 100 µM each time. Further, the TGI in [7] and in assay [8] was over 100 µM each time.

As to `CC(=O)N1[C@H](C(=O)O)CS[C@H]1c1ccc(F)cc1`, the TGI in [1], in assay [2], in assay [3], in assay [4], in assay [6] and in assay [7] was over 100 µM each time. The compound also displayed a TGI in assay [8] of over 100 µM.

Source of the values: PubChem BioAssay (NCI).
